Laboratory results reported in PMC12126525, “Mechanism of ATP hydrolysis in the Hsp70 BiP nucleotide-binding domain” (Nature Communications, 2025).
Where “and” joins values, the source holds several entries; their conditions need not be identical. Identical values can stand only once.

Target: BiP NBD (Homo sapiens, UniProt P11021)
Assay: Global kinetic fit (MCMC) of four NMR data sets (E1+E2, E1 only, E2 only, no recycling): functional cycle kinetic parameters
Assay type: biochemical
Set-up: His6 (N, cleaved yes); made in house; host or cells: E. coli BL21-(DE3)-Lemo, pET28a vector
Conditions: for Kd: standard buffer
Excerpt: It comprises 5 different states that are connected by […] reaction equations of first and second order. We consider ATP hydrolysis an irreversible reaction without backreaction. The other pathways are reversible dissociation/association reactions, arbitrarily labeled 1–5. The microscopic equations (elementary reactions) for these 11 reactions are given by:1 NBD^ATPkcat→NBD^ADP⋅Pi 2 NBD^ATPkoff1⇌kon1NBD^apo+ATP 3 NBD^ADPkoff2⇌kon2NBD^apo+ADP 4 NBD^Pikoff3⇌kon3NBD^apo+Pi 5 NBD^ADP⋅Pikoff4⇌kon4NBD^ADP+Pi 6 NBD^ADP⋅Pikoff5⇌kon5NBD^Pi+ADP With the forward and backward kinetic rate constants connected by thermodynamic equilibrium dissociation constants given by7 koffi/koni=KDifori=1,…,5 For each of the 5 states, a differential equation describing the conservation of mass can be derived:8 d/dtNBD^apo=+koff1NBD^ATP+koff2NBD^ADP+koff3NBD^Pi−kon1NBD^apoATP−kon2NBD^apoADP−kon3NBD^apoPi 9 d/dt[NBD^ATP]=+kon1NBD^apoATP−koff1NBD^ATP−kcatNBD^ATP 10 d/dtNBD^ADP⋅Pi=+kcatNBD^ATP+kon4NBD^ADPPi+kon5NBD^PiADP−koff4NBD^ADP⋅Pi−koff5NBD^ADP⋅Pi 11 d/dtNBD^ADP=+koff4NBD^ADP⋅Pi+kon2NBD^apoADP−koff2NBD^ADP−kon4NBD^ADPPi 12 d/dtNBD^Pi=+koff5NBD^ADP⋅Pi+kon3NBD^apoPi−koff3NBD^Pi−kon5NBD^PiADP Furthermore, we have the total amount13 NBD^apo+NBD^ATP+NBD^ADP+NBD^ADP⋅Pi+NBD^Pi=NBD0 These equations can be used for numerical fitting of steady-state and non-steady-state experimental data.
The experimental data of the BiP NBD in-cyclo experiments were fitted using standard reaction kinetics. Free variables were the kon and koff rates for the five reversible reaction and the catalytic rate constant (kcat) for the irreversible ATP hydrolysis step (See theory section). The initial values for kcat , koff2 , koff4 and koff5 were set to the value determined experimentally with in-cyclo experiment. The initial value for koff3 was taken from the EXSY experiment and the initial range for koff1 and KD1 were taken from the literature. […] The prior distributions were defined based on the average state occupancy resolved from the in-cyclo experiment: tNBD·ADP, tNBD, tNBD·ADP·Pi and tNBD·Pi. Numerical integration of the corresponding differential equations for the reaction scheme (described in Fig. 2a) was performed using a custom Python module (Kinetic).
To fully determine all kinetic parameters, the data fitting procedure was conducted as a global fit of four independent experimental datasets: (i) the in-cyclo experiment with ATP regeneration and phosphate removal, (ii) ATP regeneration only, (iii) single batch experiments starting from pure ATP with the phosphate removal system, and (iv) single batch experiments starting from pure ATP.
Fitting of the functional cycle kinetic parameters. a-d, Global fit of the experimental data presented in the manuscript E1 +E2 (a), E1 (b), E2 (c), no recycling system (d). Data points are shown as circles NBD·ADP (blue), NBD·ADP·PI (dark blue) and NBD·ATP (red) (left) and pyruvate (grey), glucose-1-P (lavender), ATP (red) and ADP (blue) (right). The fit of the data is shown as lines in the same color as the data points. Data points and standard deviation for three independent experiments. e, Numerical stability of the global fitting of the experimental data.

[1] = Supplementary Fig 10a, time 5 min
[2] = Supplementary Fig 10a, time 11 min
[3] = Supplementary Fig 10a, time 17 min
[4] = Supplementary Fig 10a, time 23 min
[5] = Supplementary Fig 10a, time 29 min
[6] = Supplementary Fig 10a, time 35 min
[7] = Supplementary Fig 10a, time 41 min
[8] = Supplementary Fig 10a, time 47 min
[9] = Supplementary Fig 10a, time 53 min
[10] = Supplementary Fig 10a, time 59 min
[11] = Supplementary Fig 10a, time 65 min
[12] = Supplementary Fig 10a, time 71 min
[13] = Supplementary Fig 10b, time 10 min
[14] = Supplementary Fig 10b, time 16 min
[15] = Supplementary Fig 10b, time 22 min
[16] = Supplementary Fig 10b, time 28 min
[17] = Supplementary Fig 10b, time 34 min
[18] = Supplementary Fig 10b, time 40 min
[19] = Supplementary Fig 10b, time 46 min
[20] = Supplementary Fig 10b, time 52 min
[21] = Supplementary Fig 10b, time 58 min
[22] = Supplementary Fig 10b, time 64 min
[23] = Supplementary Fig 10b, time 70 min
[24] = Supplementary Fig 10c, time 5 min
[25] = Supplementary Fig 10c, time 11 min
[26] = Supplementary Fig 10c, time 17 min
[27] = Supplementary Fig 10c, time 23 min
[28] = Supplementary Fig 10c, time 29 min
[29] = Supplementary Fig 10c, time 35 min
[30] = Supplementary Fig 10c, time 41 min
[31] = Supplementary Fig 10c, time 47 min
[32] = Supplementary Fig 10c, time 53 min
[33] = Supplementary Fig 10d, time 5 min
[34] = Supplementary Fig 10d, time 11 min
[35] = Supplementary Fig 10d, time 17 min
[36] = Supplementary Fig 10d, time 23 min
[37] = Supplementary Fig 10d, time 29 min
[38] = Supplementary Fig 10d, time 35 min
[39] = Supplementary Fig 10d, time 41 min
[40] = Supplementary Fig 10d, time 47 min
[41] = Supplementary Fig 10d, time 53 min
[42] = reactions 1-3 (koff1, koff2, koff3): release from binary complex, T = 37 °C
[43] = reactions 1-3: binding to apo NBD, T = 37 °C
[44] = reactions 1-3: ligand leaving the binary complex to give apo NBD, T = 37 °C

Chain of BiP NBD (P11021 19-406): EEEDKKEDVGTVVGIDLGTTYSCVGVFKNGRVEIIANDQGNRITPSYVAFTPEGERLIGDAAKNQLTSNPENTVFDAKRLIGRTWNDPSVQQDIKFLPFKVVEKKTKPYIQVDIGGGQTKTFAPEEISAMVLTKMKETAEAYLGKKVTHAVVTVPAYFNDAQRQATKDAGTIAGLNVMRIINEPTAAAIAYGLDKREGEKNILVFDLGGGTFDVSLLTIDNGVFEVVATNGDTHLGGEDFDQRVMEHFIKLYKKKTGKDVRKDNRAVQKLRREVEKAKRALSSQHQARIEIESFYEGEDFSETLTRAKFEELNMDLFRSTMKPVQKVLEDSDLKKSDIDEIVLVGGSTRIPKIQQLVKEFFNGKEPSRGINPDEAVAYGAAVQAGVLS

O=P(O)(O)O [Pi]
species [1]: 25 µM | species [2]: 25 µM | species [3]: 25 µM | species [4]: 25 µM | species [5]: 25 µM | species [6]: 25 µM | species [7]: 25 µM | species [8]: 25 µM | species [9]: 25 µM | species [10]: 25 µM | species [11]: 25 µM | species [12]: 25 µM | species [13]: 1011 µM | species [14]: 1602 µM | species [15]: 2255 µM | species [16]: 2820 µM | species [17]: 3384 µM | species [18]: 3735 µM | species [19]: 4207 µM | species [20]: 4544 µM | species [21]: 4962 µM | species [22]: 5335 µM | species [23]: 5727 µM | species [24]: 25 µM | species [25]: 25 µM | species [26]: 25 µM | species [27]: 25 µM | species [28]: 25 µM | species [29]: 25 µM | species [30]: 25 µM | species [31]: 25 µM | species [32]: 25 µM | species [33]: 936 µM | species [34]: 1380 µM | species [35]: 1670 µM | species [36]: 1894 µM | species [37]: 2069 µM | species [38]: 2212 µM | species [39]: 2337 µM | species [40]: 2452 µM | species [41]: 2552 µM | rate of phosphate release relative to ADP release from the ADP·Pi-bound state (koff4 versus koff5): 2.5 times | koff [42]: 1.3 ± 0.2 s⁻¹ | kon [43]: 5000 ± 1000 M⁻¹ s⁻¹ | Kd [44]: 260 ± 20 µM | koff (reactions 4, 5 (koff4, koff5): release from NBD·ADP·Pi, T = 37 °C): 0.047 ± 0.01 s⁻¹ | kon (reactions 4, 5: Pi binding to NBD·ADP, ADP binding to NBD·Pi, T = 37 °C): 200 ± 60 M⁻¹ s⁻¹ | Kd (reactions 4, 5: one ligand leaving NBD·ADP·Pi, the other stays bound, T = 37 °C): 235 ± 50 µM

Nc1ncnc2c1ncn2[C@@H]1O[C@H](COP(=O)(O)OP(=O)(O)OP(=O)(O)O)[C@@H](O)[C@H]1O [ATP]
kcat (NBD·ATP → NBD·ADP·Pi, T = 37 °C): 0.065 ± 0.013 s⁻¹ and 0.065 ± 0.01 s⁻¹ | species [1]: 4931 µM | species [2]: 4934 µM | species [3]: 4884 µM | species [4]: 4899 µM | species [5]: 4939 µM | species [6]: 4943 µM | species [7]: 4963 µM | species [8]: 4978 µM | species [9]: 5001 µM | species [10]: 5024 µM | species [11]: 5048 µM | species [12]: 5079 µM | species [13]: 5016 µM | species [14]: 4951 µM | species [15]: 4989 µM | species [16]: 4949 µM | species [17]: 5005 µM | species [18]: 4923 µM | species [19]: 4996 µM | species [20]: 4916 µM | species [21]: 4954 µM | species [22]: 4989 µM | species [23]: 4937 µM | species [24]: 4151 µM | species [25]: 3560 µM | species [26]: 3077 µM | species [27]: 2698 µM | species [28]: 1801 µM | species [29]: 1548 µM | species [30]: 1183 µM | species [31]: 1030 µM | species [32]: 902 µM | kcat fitted average (Supplementary Fig 11b, fitted): 0.065 s⁻¹ | species [33]: 4064 µM | species [34]: 3620 µM | species [35]: 3330 µM | species [36]: 3106 µM | species [37]: 2931 µM | species [38]: 2788 µM | species [39]: 2663 µM | species [40]: 2548 µM | species [41]: 2448 µM | factor by which ATP unbinding is rarer than ATP hydrolysis (koff1 versus kcat): 5 times | koff [42]: 0.012 ± 0.003 s⁻¹ | kon [43]: 32000 ± 9000 M⁻¹ s⁻¹ | Kd [44]: 0.38 ± 0.12 µM
